Assays:
xanthine oxidase = xanthine oxidase (Homo sapiens, UniProt P47989); settings: as described in WO92/09279; cited from earlier work
[1] = as described in WO99/65885; cited from earlier work
[2] = Physical stability of drug substance crystals at 40° C./75% RH (HPLC degradant, XRD/TG transformation); assay type: physicochemical; settings: for Transformation of crystal form on storage: 40° C./75% RH, storage for three months
Protocol: Each of the drug substances (crystals A, B, C, D, E and G) of 2-(3-cyano-4-isobutyloxyphenyl)-4-methyl-5-thiazolecarboxylic acid was tested in bottles with and without closure under the conditions of 40° C./75% RH. Any degradant was detected by a HPLC. Their transformation was detected by an X-ray powder diffraction pattern and by a thermal mass measurement method, and the 50% transform time was determined. There was no degradant for all of the six crystal forms.
For the above HPLC, Model 2690 produced by Waters was adopted, using an ODS column with a measured wave length of 217 nm at a predetermined temperature around 40° C.
For the above X-ray powder diffraction, Model XRD-6000 of Shimadzu Corp. was used.
For the above heat mass measurement, Model TGA7, Pyris1 produced by Perkin Elmer was used at a temperature rising speed of 40° C./min.

[3] = Intrinsic dissolution rate (USP 24 <1087>); assay type: physicochemical; settings: pellets, second fluid of the disintegration test of Japanese Pharmacopoeia, 50 rpm
Protocol: The dissolution rate was measured according to USP 24, <1087>Intrinsic Dissolution. Specifically, the measurement was carried out as follows:
50 mg each of crystals powdered lightly in an agate mortar was set between plates, and a pressure of 754 kgf/cm^2 was applied thereto for one minute to produce pellets. As the testing solution, 900 mL of the second fluid of the disintegration test of Japanese Pharmacopoeia was used and the test was carried out at 50 rpm using the dissolution apparatus produced by Vankel. Subsequently, the testing liquid was filtered through a filter and the resultant, used as the sample solution, was tested with respect to a standard solution by a spectrophotometry (wavelength of 317 nm). The results are shown in Table 2, in which the order of the dissolution rate of the six crystals is as follows: E>A>B>D>G>C.

[4] = Pulverized particle size by image analysis; assay type: physicochemical
Protocol: Plain tablets were prepared by the method same as that of Example 1 except that particles (Particles 1˜4) shown in Table 7, with crystal A and with four different kinds of average particle sizes, were used as 2-(3-cyano-4-isobutyloxyphenyl)-4-methyl-5-thiazolecarboxylic acid. The obtained plain tablets were coated with coating liquid comprising purified water, polyethylene glycol and hydroxypropylmethyl cellulose by a coating machine (High Coater HCT-30, Freund Ind.).

[5] = 40° C./75% RH with closure, analysis XRD or TG
[6] = 40° C./75% RH without closure, analysis XRD or TG

Sequence of xanthine oxidase (P47989 whole entry, species assumed): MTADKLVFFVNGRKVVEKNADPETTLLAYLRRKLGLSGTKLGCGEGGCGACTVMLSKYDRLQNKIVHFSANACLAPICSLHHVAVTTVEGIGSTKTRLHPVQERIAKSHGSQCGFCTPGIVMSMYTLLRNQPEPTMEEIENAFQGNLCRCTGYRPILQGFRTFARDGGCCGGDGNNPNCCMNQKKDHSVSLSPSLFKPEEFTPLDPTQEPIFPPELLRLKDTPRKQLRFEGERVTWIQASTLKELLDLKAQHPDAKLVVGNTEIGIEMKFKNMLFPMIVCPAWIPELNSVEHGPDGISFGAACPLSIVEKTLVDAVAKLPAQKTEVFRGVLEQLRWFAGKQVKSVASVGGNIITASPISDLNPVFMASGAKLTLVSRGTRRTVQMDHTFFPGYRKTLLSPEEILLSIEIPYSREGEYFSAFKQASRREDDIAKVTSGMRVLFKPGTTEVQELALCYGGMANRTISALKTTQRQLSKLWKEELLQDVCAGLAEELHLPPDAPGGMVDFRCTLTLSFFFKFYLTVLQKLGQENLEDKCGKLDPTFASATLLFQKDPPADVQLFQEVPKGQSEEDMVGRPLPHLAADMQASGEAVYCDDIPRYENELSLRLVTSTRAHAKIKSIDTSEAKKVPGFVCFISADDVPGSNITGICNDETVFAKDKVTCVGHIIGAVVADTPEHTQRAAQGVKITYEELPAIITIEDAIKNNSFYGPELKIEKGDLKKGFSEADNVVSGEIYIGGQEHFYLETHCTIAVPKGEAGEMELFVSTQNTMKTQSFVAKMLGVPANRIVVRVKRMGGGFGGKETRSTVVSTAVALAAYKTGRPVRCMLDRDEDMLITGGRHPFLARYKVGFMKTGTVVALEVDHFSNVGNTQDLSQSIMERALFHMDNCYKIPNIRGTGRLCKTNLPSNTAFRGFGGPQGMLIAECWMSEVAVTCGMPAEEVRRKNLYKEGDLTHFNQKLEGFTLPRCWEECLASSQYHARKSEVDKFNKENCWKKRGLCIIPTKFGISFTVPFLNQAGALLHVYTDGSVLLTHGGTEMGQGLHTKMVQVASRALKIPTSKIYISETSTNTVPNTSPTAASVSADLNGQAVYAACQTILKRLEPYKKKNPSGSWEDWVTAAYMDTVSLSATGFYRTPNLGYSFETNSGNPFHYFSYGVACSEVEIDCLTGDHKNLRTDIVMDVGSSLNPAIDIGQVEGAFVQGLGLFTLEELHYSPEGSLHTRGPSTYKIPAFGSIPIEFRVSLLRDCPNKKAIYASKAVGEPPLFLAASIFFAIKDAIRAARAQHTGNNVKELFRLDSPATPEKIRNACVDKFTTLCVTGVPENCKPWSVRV

Compound	50% Transform time [2, 5]	50% Transform time [2, 6]	Intrinsic rate [3] [mg/cm^2/min]	50% Transform time ([2]; 40° C./75% RH without closure, analysis XRD) [days]	Pulverized particle size, 95% cumulative diameter [4] [μm]	Pulverized particle size, average particle diameter [4] [μm]	Activity for inhibiting xanthine oxidase (xanthine oxidase)	Retention of a crystal form in long term storage [1]	Transformation of crystal form on storage [2]
Cc1nc(-c2ccc(OCC(C)C)c(C#N)c2)sc1C(=O)O [2-(3-cyano-4-isobutyloxyphenyl)-4-methyl-5-thiazolecarboxylic acid]	–	–	–	–	–	–	strong activity	–	–
Cc1nc(-c2ccc(OCC(C)C)c(C#N)c2)sc1C(=O)O [Crystal A, 2-(3-cyano-4-isobutyloxyphenyl)-4-methyl-5-thiazolecarboxylic acid]	(Not changed)	(Not changed)	0.1434	–	–	–	–	useful in view of retention of a crystal form in long term storage	stable
Cc1nc(-c2ccc(OCC(C)C)c(C#N)c2)sc1C(=O)O [Crystal B, 2-(3-cyano-4-isobutyloxyphenyl)-4-methyl-5-thiazolecarboxylic acid]	5 days	0.583 days	0.1242	–	–	–	–	–	transformation of crystals B, D and E was detected
Cc1nc(-c2ccc(OCC(C)C)c(C#N)c2)sc1C(=O)O [Crystal C, 2-(3-cyano-4-isobutyloxyphenyl)-4-methyl-5-thiazolecarboxylic acid]	(Not changed)	(Not changed)	0.0694	–	–	–	–	useful in view of retention of a crystal form in long term storage	stable
Cc1nc(-c2ccc(OCC(C)C)c(C#N)c2)sc1C(=O)O [Crystal D, 2-(3-cyano-4-isobutyloxyphenyl)-4-methyl-5-thiazolecarboxylic acid]	17 days	0.0104 days	0.1092	–	–	–	–	–	transformation of crystals B, D and E was detected
Cc1nc(-c2ccc(OCC(C)C)c(C#N)c2)sc1C(=O)O [Crystal E, 2-(3-cyano-4-isobutyloxyphenyl)-4-methyl-5-thiazolecarboxylic acid]	55 days	–	0.1874	19	–	–	–	–	transformation of crystals B, D and E was detected

Now from value to compound, other results behind:

50% Transform time [2, 5]	50% Transform time [2, 6]	Intrinsic rate [3] [mg/cm^2/min]	50% Transform time ([2]; 40° C./75% RH without closure, analysis XRD) [days]	Pulverized particle size, 95% cumulative diameter [4] [μm]	Pulverized particle size, average particle diameter [4] [μm]	Compound	Activity for inhibiting xanthine oxidase (xanthine oxidase)	Retention of a crystal form in long term storage [1]	Transformation of crystal form on storage [2]
(Not changed)	(Not changed)	0.0967	–	–	–	Cc1nc(-c2ccc(OCC(C)C)c(C#N)c2)sc1C(=O)O [Crystal G, 2-(3-cyano-4-isobutyloxyphenyl)-4-methyl-5-thiazolecarboxylic acid]	–	useful in view of retention of a crystal form in long term storage	stable
–	–	–	–	5.6	3.5	Cc1nc(-c2ccc(OCC(C)C)c(C#N)c2)sc1C(=O)O [Particle 1, 2-(3-cyano-4-isobutyloxyphenyl)-4-methyl-5-thiazolecarboxylic acid]	–	–	–
–	–	–	–	29.5	12.9	Cc1nc(-c2ccc(OCC(C)C)c(C#N)c2)sc1C(=O)O [Particle 2, 2-(3-cyano-4-isobutyloxyphenyl)-4-methyl-5-thiazolecarboxylic acid]	–	–	–
–	–	–	–	74.7	26.2	Cc1nc(-c2ccc(OCC(C)C)c(C#N)c2)sc1C(=O)O [Particle 3, 2-(3-cyano-4-isobutyloxyphenyl)-4-methyl-5-thiazolecarboxylic acid]	–	–	–
–	–	–	–	140.8	48.6	Cc1nc(-c2ccc(OCC(C)C)c(C#N)c2)sc1C(=O)O [Particle 4, 2-(3-cyano-4-isobutyloxyphenyl)-4-methyl-5-thiazolecarboxylic acid]	–	–	–

From patent US7361676B2, “Solid preparation containing single crystal form” (Teijin Limited, priority 2002, dated 2008)
